Assay results published in PubChem BioAssay AID328 (DTP/NCI, 2004).
“And” between values parts separate entries of the source, which are not always exact repeats. Equal entries are not always repeated. Toxic doses and inconclusive results are not listed. How the source made its calls: active means survival T/C of 150% or more; inactive means T/C below 125% in these data.

Test system: BDF1 mice, P388 leukemia ip, median survival T/C
Assay: NCI In Vivo Anticancer Drug Screen. Data for tumor model P388 Leukemia (intraperitoneal) in B6D2F1 (BDF1) mice
Details: endpoint: median survival time, higher = longer survival
Protocol: The antitumor activity of compounds was measured in mice bearing transplantable tumors. Survival or tumor size were measured and the results are expressed as the measurement made in the treated group (T) divided by the measurement made in the vehicle treated control group (C). The tumor model used in this assay is P388 Leukemia (intraperitoneal) in B6D2F1 (BDF1) mice

[1] = dose: 100.0 mg/kg/injection, schedule: Q04DX003 (ip), vehicle: Klucel (hydroxypropylcellulose) (HPC)
[2] = dose: 200.0 mg/kg/injection, schedule: Q04DX003 (ip), vehicle: Klucel (hydroxypropylcellulose) (HPC)
[3] = dose: 400.0 mg/kg/injection, schedule: Q04DX003 (ip), vehicle: Klucel (hydroxypropylcellulose) (HPC)
[4] = dose: 100.0 mg/kg/injection, schedule: Q01DX001 (ip), vehicle: saline with Tween-80
[5] = dose: 200.0 mg/kg/injection, schedule: Q01DX001 (ip), vehicle: saline with Tween-80
[6] = dose: 400.0 mg/kg/injection, schedule: Q01DX001 (ip), vehicle: saline with Tween-80
[7] = dose: 100.0 mg/kg/injection, schedule: Q04DX003 (ip), vehicle: saline
[8] = dose: 200.0 mg/kg/injection, schedule: Q04DX003 (ip), vehicle: saline
[9] = dose: 400.0 mg/kg/injection, schedule: Q04DX003 (ip), vehicle: saline
[10] = dose: 50.0 mg/kg/injection, schedule: Q01DX009 (ip), vehicle: water
[11] = dose: 100.0 mg/kg/injection, schedule: Q01DX009 (ip), vehicle: water
[12] = dose: 100.0 mg/kg/injection, schedule: Q04DX003 (ip), vehicle: water
[13] = dose: 200.0 mg/kg/injection, schedule: Q04DX003 (ip), vehicle: water
[14] = dose: 100.0 mg/kg/injection, schedule: Q01DX009 (ip), vehicle: saline with Tween-80
[15] = dose: 200.0 mg/kg/injection, schedule: Q01DX009 (ip), vehicle: saline with Tween-80
[16] = dose: 400.0 mg/kg/injection, schedule: Q01DX009 (ip), vehicle: saline with Tween-80
[17] = dose: 100.0 mg/kg/injection, schedule: Q04DX003 (ip), vehicle: saline with Tween-80
[18] = dose: 200.0 mg/kg/injection, schedule: Q04DX003 (ip), vehicle: saline with Tween-80
[19] = dose: 400.0 mg/kg/injection, schedule: Q04DX003 (ip), vehicle: saline with Tween-80
[20] = dose: 50.0 mg/kg/injection, schedule: Q01DX009 (ip), vehicle: saline with Tween-80

Measured: T/C

CC(=O)c1cnn(-c2ccccc2)c1C
inactive: dose: 100.0 mg/kg/injection, schedule: Q01DX001 (ip), vehicle: Klucel (hydroxypropylcellulose) (HPC) 104 % of control | dose: 100.0 mg/kg/injection, schedule: Q01DX009 (ip), vehicle: other 105 % of control | [1] 104 % of control | dose: 200.0 mg/kg/injection, schedule: Q01DX001 (ip), vehicle: Klucel (hydroxypropylcellulose) (HPC) 109 % of control | dose: 200.0 mg/kg/injection, schedule: Q01DX009 (ip), vehicle: other 100 % of control | [2] 86 % of control | dose: 400.0 mg/kg/injection, schedule: Q01DX001 (ip), vehicle: Klucel (hydroxypropylcellulose) (HPC) 109 % of control | dose: 400.0 mg/kg/injection, schedule: Q01DX009 (ip), vehicle: other 100 % of control | [3] 90 % of control

CN(C)C=O.CN(C)C=O.[Cl][Sn]([Cl])([Cl])[Cl]
inactive: dose: 25.0 mg/kg/injection, schedule: Q01DX009 (ip), vehicle: Klucel (hydroxypropylcellulose) (HPC) 100 % of control | dose: 50.0 mg/kg/injection, schedule: Q01DX009 (ip), vehicle: Klucel (hydroxypropylcellulose) (HPC) 105 % of control | dose: 75.0 mg/kg/injection, schedule: Q04DX003 (ip), vehicle: Klucel (hydroxypropylcellulose) (HPC) 109 % of control | dose: 100.0 mg/kg/injection, schedule: Q01DX009 (ip), vehicle: Klucel (hydroxypropylcellulose) (HPC) 100 % of control | dose: 150.0 mg/kg/injection, schedule: Q04DX003 (ip), vehicle: Klucel (hydroxypropylcellulose) (HPC) 86 % of control

O=C1OC(c2ccccc2)CC1NCc1ccccc1 (stereo not given)
inactive: [4] 100 % of control | [5] 100 % of control | [6] 100 % of control

CS(=O)(=O)OCCF
inactive: dose: 1.5 mg/kg/injection, schedule: Q01DX009 (ip), vehicle: saline with Tween-80 100 % of control | dose: 1.5 mg/kg/injection, schedule: Q04DX003 (ip), vehicle: saline 104 % of control | dose: 3.0 mg/kg/injection, schedule: Q01DX009 (ip), vehicle: saline with Tween-80 100 % of control | dose: 3.0 mg/kg/injection, schedule: Q04DX003 (ip), vehicle: saline 109 % of control

O=C(O)C1OC12CCCCC2 (stereo not given)
inactive: [7] 91 % of control | [8] 91 % of control | [9] 91 % of control

CCOC(=O)/C(N=O)=C(\O)c1ccc2ccccc2n1
inactive: dose: 3.12 mg/kg/injection, schedule: Q01DX009 (ip), vehicle: water 106 % of control | dose: 6.25 mg/kg/injection, schedule: Q01DX009 (ip), vehicle: water 98 % of control and 99 % of control and 103 % of control | dose: 12.5 mg/kg/injection, schedule: Q01DX009 (ip), vehicle: water 111 % of control and 123 % of control | dose: 25.0 mg/kg/injection, schedule: Q01DX009 (ip), vehicle: water 94 % of control and 104 % of control and 106 % of control | dose: 25.0 mg/kg/injection, schedule: Q04DX003 (ip), vehicle: water 97 % of control | [10] 100 % of control and 103 % of control | dose: 50.0 mg/kg/injection, schedule: Q04DX003 (ip), vehicle: water 120 % of control | [11] 99 % of control | [12] 105 % of control | dose: 200.0 mg/kg/injection, schedule: Q01DX009 (ip), vehicle: water 91 % of control | [13] 97 % of control | dose: 400.0 mg/kg/injection, schedule: Q01DX009 (ip), vehicle: water 110 % of control | dose: 400.0 mg/kg/injection, schedule: Q04DX003 (ip), vehicle: water 92 % of control

CCN(CC)CCCNC(C)CCCN(CC)CC (stereo not given)
inactive: [10] 103 % of control | [11] 98 % of control | [12] 102 % of control | [13] 100 % of control

O=C(O)CCN1C(=O)c2ccccc2C1=O
inactive: [14] 90 % of control | [15] 100 % of control

COc1ccc(/C=C/c2ccnc3ccccc23)cc1
inactive: [14] 93 % of control | [15] 111 % of control | [16] 93 % of control

Cc1c(C(=O)O)nc(/C=C/C(Cl)(Cl)Cl)[nH]c1=O
inactive: dose: 25.0 mg/kg/injection, schedule: Q04DX003 (ip), vehicle: Klucel (hydroxypropylcellulose) (HPC) 102 % of control | dose: 50.0 mg/kg/injection, schedule: Q04DX003 (ip), vehicle: Klucel (hydroxypropylcellulose) (HPC) 100 % of control | [1] 115 % of control | [2] 103 % of control | [3] 116 % of control

CC1=CC(=O)C2=C(C)CCC3C(C)C(=O)OC3C12 (stereo not given)
inactive: [17] 100 % of control | [18] 111 % of control | [19] 116 % of control

COC(=O)C(NC(=O)OCc1ccccc1)C(=O)OC
inactive: [14] 104 % of control | [17] 104 % of control | [15] 95 % of control | [18] 109 % of control | [16] 95 % of control | [19] 100 % of control

NC(=O)CC1=NCCc2ccccc21
inactive: dose: 50.0 mg/kg/injection, schedule: Q01DX009 (ip), vehicle: saline 95 % of control | dose: 50.0 mg/kg/injection, schedule: Q04DX003 (ip), vehicle: saline 100 % of control | dose: 100.0 mg/kg/injection, schedule: Q01DX009 (ip), vehicle: saline 91 % of control | [7] 100 % of control | dose: 200.0 mg/kg/injection, schedule: Q01DX009 (ip), vehicle: saline 91 % of control | [8] 113 % of control

Cc1cc(Cl)ccc1NC(=O)Oc1nc2ccccc2o1
inactive: [20] 123 % of control | [14] 106 % of control | [15] 117 % of control

CNCc1cccs1
inactive: [7] 106 % of control | [8] 117 % of control | [9] 100 % of control

Fc1ccc(C=Nc2cccc(Cl)c2)cc1
inactive: [17] 108 % of control | [18] 104 % of control | [19] 108 % of control

CC(=O)[S][Pb]([c]1ccccc1)([c]1ccccc1)[c]1ccccc1
inactive: dose: 4.0 mg/kg/injection, schedule: Q01DX009 (ip), vehicle: Klucel (hydroxypropylcellulose) (HPC) 114 % of control | dose: 5.9 mg/kg/injection, schedule: Q01DX009 (ip), vehicle: Klucel (hydroxypropylcellulose) (HPC) 110 % of control | dose: 9.0 mg/kg/injection, schedule: Q01DX009 (ip), vehicle: Klucel (hydroxypropylcellulose) (HPC) 106 % of control

CC(C)CCCCCCCCOC(=O)c1ccccc1C(=O)OCCCCCCCCC(C)C
inactive: [17] 109 % of control | [18] 109 % of control | [19] 104 % of control

CC(=O)C(C(C)=O)c1cc(NS(=O)(=O)c2ccccc2)ccc1O
inactive: [4] 104 % of control | [5] 100 % of control | [6] 95 % of control

O=C(O)C1OC(n2cc([N+](=O)[O-])c(=O)[nH]c2=O)C(O)C1O (stereo not given)
inactive: dose: 25.0 mg/kg/injection, schedule: Q01DX009 (ip), vehicle: saline with Tween-80 95 % of control | [20] 96 % of control | [14] 93 % of control

CC1=CC=CC2=NC(=O)CCN12
inactive: [20] 94 % of control | [14] 94 % of control | [15] 100 % of control
